One data set has as its system GABAA receptor. Conditions: 365 μM ketamine; cited from earlier work.
The conditions of data set [1]: aqueous phase; Human; cited from earlier work.
The subject of data set [2] is 3-transmembrane (TM3) and 4-transmembrane (TM4) receptors. Conditions: grouped by calculated molar solubility in unbuffered water at 25° C.; cited from earlier work.
Data set [3] in a line: Loss of righting reflex in mice (inhaled agent). It counts as in vivo. As for the experimental part: (§1) HFCP caused loss of righting reflex (a surrogate measure of unconsciousness) in 4 healthy ND4 mice at 1.0±0.2 (mean±SD) percent of 1 atmosphere. […] After 2 hours of anesthesia, mice were awake after about 1 minute of discontinuing HFCP administration. […] Despite a lack of NMDA receptor effects, 1,1,2,2,3,3,4-heptafluorocyclopentane is able to produce the desired pharmacologic endpoints of unconsciousness and immobility that appears similar to desirable effects produced by conventional agents.

The conditions of data set [4]: aqueous phase; Tadpole; cited from earlier work.
The conditions of data set [5]: read-out: Aqueous EC50; aqueous phase; Rat; cited from earlier work.
The target in another data set is NMDA receptor. Conditions: read-out: IC50, inhibition of NMDA receptor currents; cited from earlier work.
Data set [6] deals with inhibitory potassium channels. Put plainly: Inhibitory potassium channel modulation in vitro. It counts as cell-based. Conditions: some inhibitory potassium channels.
Data set [7] deals with T1, NMDA (NR1/NR2A) receptors (Rattus norvegicus, UniProt P35439+Q00959).
T1 construct: expressed in transfected cells; host or cells: Xenopus laevis oocytes (RNA injection, 1:1)
T1 sequence (Q00959 23-1464, other chains not shown): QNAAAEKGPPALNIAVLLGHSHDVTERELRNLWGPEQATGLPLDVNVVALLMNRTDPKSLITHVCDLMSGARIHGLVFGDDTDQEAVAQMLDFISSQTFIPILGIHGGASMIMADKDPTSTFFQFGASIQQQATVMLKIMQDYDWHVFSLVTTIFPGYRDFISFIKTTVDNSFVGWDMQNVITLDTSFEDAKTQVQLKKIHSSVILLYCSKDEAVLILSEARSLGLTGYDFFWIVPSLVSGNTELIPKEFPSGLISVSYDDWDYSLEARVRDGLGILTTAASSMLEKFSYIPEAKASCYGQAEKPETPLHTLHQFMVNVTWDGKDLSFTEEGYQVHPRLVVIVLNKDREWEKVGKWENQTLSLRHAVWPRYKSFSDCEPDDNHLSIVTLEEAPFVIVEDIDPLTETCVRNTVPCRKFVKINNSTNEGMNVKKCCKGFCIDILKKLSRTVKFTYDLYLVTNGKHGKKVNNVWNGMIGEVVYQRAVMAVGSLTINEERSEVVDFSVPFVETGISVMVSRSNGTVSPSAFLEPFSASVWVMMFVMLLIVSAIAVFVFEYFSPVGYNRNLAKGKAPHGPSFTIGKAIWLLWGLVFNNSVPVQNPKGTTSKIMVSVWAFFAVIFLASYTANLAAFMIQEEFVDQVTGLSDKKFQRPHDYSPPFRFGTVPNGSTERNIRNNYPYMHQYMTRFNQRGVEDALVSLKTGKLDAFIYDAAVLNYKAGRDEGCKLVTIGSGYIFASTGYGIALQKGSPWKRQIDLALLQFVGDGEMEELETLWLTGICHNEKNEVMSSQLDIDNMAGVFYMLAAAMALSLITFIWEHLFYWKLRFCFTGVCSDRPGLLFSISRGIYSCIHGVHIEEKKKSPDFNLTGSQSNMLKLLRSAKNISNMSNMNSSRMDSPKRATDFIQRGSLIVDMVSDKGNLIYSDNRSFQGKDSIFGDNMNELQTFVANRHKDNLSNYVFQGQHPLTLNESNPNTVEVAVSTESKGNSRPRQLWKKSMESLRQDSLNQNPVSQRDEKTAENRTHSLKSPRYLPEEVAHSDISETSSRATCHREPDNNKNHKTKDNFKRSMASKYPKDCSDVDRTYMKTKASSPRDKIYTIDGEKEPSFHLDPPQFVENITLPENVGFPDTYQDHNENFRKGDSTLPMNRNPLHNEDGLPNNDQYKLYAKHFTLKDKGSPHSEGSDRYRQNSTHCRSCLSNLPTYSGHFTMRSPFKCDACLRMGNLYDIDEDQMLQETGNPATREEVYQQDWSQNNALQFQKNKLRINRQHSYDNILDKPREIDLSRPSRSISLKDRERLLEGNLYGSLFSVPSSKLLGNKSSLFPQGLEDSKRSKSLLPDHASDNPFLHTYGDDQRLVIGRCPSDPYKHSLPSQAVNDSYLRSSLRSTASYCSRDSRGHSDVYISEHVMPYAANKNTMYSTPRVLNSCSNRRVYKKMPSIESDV
Put plainly: NMDA receptor two-electrode voltage clamp in oocytes at saturated drug concentration. Conditions: saturating aqueous concentration. It counts as cell-based. On the technique in general: Two-electrode voltage clamp holds a large cell at a set potential and records current.

A short description of data set [8]: Loss of righting reflex in Sprague-Dawley rats (inhaled agent). It counts as in vivo. Here is the method:
1,1,2,2,3,3,4,5-octafluorocyclopentane (CAS#828-35-3) caused a loss of righting reflex in 4 healthy Sprague-Dawley rats at a concentration of 3.3±0.4 (mean±SD) percent of 1 atmosphere. […] After discontinuing the agent, rats were awake and ambulatory in less than 1 minute. […] Despite a lack of NMDA receptor effects, 1,1,2,2,3,3,4,5-octafluorocyclopentane is able to produce the desired pharmacologic endpoints of unconsciousness and immobility that appears similar to desirable effects produced by conventional agents.

For a further data set, the system named is glycine receptors. Put plainly: Glycine receptor modulation in vitro. It counts as cell-based.
Data set [9] deals with T2, GABAA (α1β2γ2s) receptors (UniProt P14867+P18508+P63138).
T2 construct: expressed in transfected cells; host or cells: Xenopus laevis oocytes (intranuclear plasmid injection, α1:β2:γ2 = 1:1:10)
T2 sequence (P14867 28-456): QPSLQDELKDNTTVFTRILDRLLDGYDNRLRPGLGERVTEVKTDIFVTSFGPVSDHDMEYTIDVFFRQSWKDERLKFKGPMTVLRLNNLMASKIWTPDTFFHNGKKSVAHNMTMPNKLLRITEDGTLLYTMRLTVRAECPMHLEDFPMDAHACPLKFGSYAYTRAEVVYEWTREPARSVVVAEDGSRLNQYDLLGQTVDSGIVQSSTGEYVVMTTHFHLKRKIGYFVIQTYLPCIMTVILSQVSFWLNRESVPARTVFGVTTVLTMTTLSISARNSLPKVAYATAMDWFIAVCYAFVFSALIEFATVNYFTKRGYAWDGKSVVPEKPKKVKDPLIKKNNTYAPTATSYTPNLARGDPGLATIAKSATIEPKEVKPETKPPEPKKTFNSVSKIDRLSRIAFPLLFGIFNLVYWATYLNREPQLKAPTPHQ
T2 sequence (P63138 25-474 limits assumed): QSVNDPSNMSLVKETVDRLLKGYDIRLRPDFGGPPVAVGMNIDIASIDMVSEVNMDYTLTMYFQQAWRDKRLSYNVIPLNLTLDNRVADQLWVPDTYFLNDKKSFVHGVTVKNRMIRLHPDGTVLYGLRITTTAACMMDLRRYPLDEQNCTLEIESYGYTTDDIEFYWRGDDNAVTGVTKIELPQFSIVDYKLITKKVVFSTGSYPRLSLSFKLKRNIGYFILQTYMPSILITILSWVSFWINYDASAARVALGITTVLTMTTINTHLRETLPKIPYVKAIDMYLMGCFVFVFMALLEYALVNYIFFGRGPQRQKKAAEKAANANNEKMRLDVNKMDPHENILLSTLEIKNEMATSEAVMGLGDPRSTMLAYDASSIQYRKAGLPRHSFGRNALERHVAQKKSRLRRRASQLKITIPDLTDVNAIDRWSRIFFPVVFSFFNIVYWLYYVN
T2 sequence (P18508 39-466): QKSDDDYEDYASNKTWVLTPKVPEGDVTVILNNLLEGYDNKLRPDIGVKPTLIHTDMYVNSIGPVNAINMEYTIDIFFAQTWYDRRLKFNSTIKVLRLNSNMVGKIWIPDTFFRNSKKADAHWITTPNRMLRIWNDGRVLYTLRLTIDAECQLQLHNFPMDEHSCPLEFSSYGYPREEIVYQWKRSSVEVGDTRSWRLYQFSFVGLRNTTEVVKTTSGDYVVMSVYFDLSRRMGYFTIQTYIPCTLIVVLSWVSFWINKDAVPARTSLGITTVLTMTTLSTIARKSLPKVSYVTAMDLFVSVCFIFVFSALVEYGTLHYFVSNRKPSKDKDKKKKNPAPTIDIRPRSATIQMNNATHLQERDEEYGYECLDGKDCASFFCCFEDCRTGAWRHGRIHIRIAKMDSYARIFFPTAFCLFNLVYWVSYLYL
The data set can be described thus: GABAA receptor two-electrode voltage clamp in oocytes at saturated drug concentration. Type of data set: cell-based, human α1, rat β2 and γ2s. To be noted: saturating aqueous concentration.

A further data set deals with oocyte. The data set can be described thus: Cytotoxicity during oocyte electrophysiology studies. Type of data set: cell-based, Xenopus laevis. An excerpt: These compounds are not preferred. Other structures previously known to be highly toxic to animals or humans (such as silanes and boranes) are not preferred.
Data set [10] is described as follows: Histopathology of heart, lung, kidney and liver tissues after anesthesia. Type of data set: in vivo, ND4 mice. To be noted: collected 2 days later. Here is the method:
as §1

Another data set can be described thus: Stability in soda lime. It counts as physicochemical. An excerpt:
Divalent bases (and sometimes monovalent bases) are used for CO2 absorption in anesthetic circuits; clinically-useful agents must therefore be stable in the presence of strong bases. […] Anesthetics should also be resistant to hydrolysis and redox reactions in vivo. Compounds with ester linkages can be thermally unstable or hydrolysed by plasma and tissue cholinesterases; and those compounds resistant to hydrolysis may likely cause undesirable inhibition of these enzymes (which are essential for metabolism of other drugs). Therefore, compounds with ester linkages are not preferred. Anesthetics with non-aromatic unsaturated carbon linkages have been used historically (fluroxene, isopropenyl vinyl ether, trichloroethylene, vinethylene, ethylene) and shown to undergo extensive metabolism that for some agents was associated with toxicity. Agents containing double or triple carbon bonds are not preferred.

Like-named read-outs stand apart in the source and are kept apart here.

This is an account of results in patent publication US10010525B2, “Methods of inducing anesthesia” (The Regents of the University of California, priority 2012, dated 2018).

As for `CNC1(c2ccccc2Cl)CCCCC1=O` (stereo not drawn) [Ketamine], in the data set with GABAA receptor, the “increase of GABAA receptor currents” value was 56%. Further, the EC50 (commonly the concentration at which the effect is half-maximal) in data set [1] was 2 µM. Besides, in [2], the “ion channel modulation, TM3 versus TM4 receptors (FIG. 2)” value was “modulate both 3-transmembrane (TM3) and TM4 receptors”.

For the compound `FC1C(F)(F)C(F)(F)OC1(F)C(F)(F)F` (stereo not drawn) [2,2,3,3,4,5-hexafluorotetrahydro-5-(trifluoromethyl)-furan], the “concentration causing loss of righting reflex” value (shortened to “concentration causing loss”) in data set [3] (mice) is reported as 1-10%.

As for `Cc1cccc([C@H](C)c2cnc[nH]2)c1C` [Dexmedetomidine], the EC50 in data set [4] was 7 µM.

For `CC(C)c1cccc(C(C)C)c1O` [Propofol], the EC50 in data set [5] was 2 µM. For the same compound, the IC50 (in general, the concentration that gives 50% inhibition) at NMDA receptor is 160 µM. Moreover, the “ion channel modulation, TM3 versus TM4 receptors (FIG. 2)” value in data set [2] was “modulate both 3-transmembrane (TM3) and TM4 receptors”.

`FC1C(F)C(F)(F)C(F)(F)C1(F)F` (stereo not drawn) [1,1,2,2,3,3,4,5-octafluorocyclopentane]: the “inhibitory potassium channel modulation (in words)” value in data set [6] is recorded as “potentiates”. Moreover, the “NMDA receptor modulation (in words)” value in [7] is recorded as “no effect”. The “concentration causing loss” value in data set [8] (4 healthy Sprague-Dawley rats, mean±SD, inhaled) is 3.3±0.4% of 1 atmosphere. Moreover, in [8] (rats), the “excitement or coughing during anesthetic induction” value was “without excitement or coughing”; the “time to awake and ambulatory after discontinuing the agent” value was “less than 1 minute”. The “glycine receptor modulation (in words)” value in the data set on glycine receptors is “potentiates”. Moreover, the “GABAA receptor modulation (in words)” value in data set [9] is recorded as “potentiates”.

For `C1CCNC1` [pyrrolidine], in the data set on oocyte, the “cytotoxicity during oocyte electrophysiology studies” value is given as “cytotoxicity”.

`CCOC(=O)c1cncn1[C@H](C)c1ccccc1` [Etomidate]: the concentration for a half-maximal effect (EC50) in [4] was 3 µM. Moreover, the “ion channel modulation, TM3 versus TM4 receptors (FIG. 2)” value in data set [2] is recorded as “modulate 4-transmembrane receptors (TM4) or neither receptor type”.

On to `FC(F)OC(Cl)C(F)(F)F` (stereo not drawn) [Isoflurane], for which, in data set [4], the EC50 was 290 µM. For the same compound, the “ion channel modulation, TM3 versus TM4 receptors (FIG. 2)” value in [2] was “modulate both 3-transmembrane (TM3) and TM4 receptors”.

As to `CCOCC` [Diethyl ether], the EC50 in data set [4] was 25000 µM. The “ion channel modulation, TM3 versus TM4 receptors (FIG. 2)” value in [2] was “modulate both 3-transmembrane (TM3) and TM4 receptors”.

For `ClC(Cl)Cl` [Chloroform], the EC50 in [4] was 1300 µM.

For the compound `FC(F)(F)C(Cl)Br` (stereo not drawn) [Halothane], the EC50 in data set [4] is 230 µM. The “ion channel modulation, TM3 versus TM4 receptors (FIG. 2)” value in data set [2] is “modulate both 3-transmembrane (TM3) and TM4 receptors”.

In the case of `FC1(F)OC(F)(F)C(F)(F)C(F)(F)C1(F)F` [Perfluorotetrahydropyran], the “concentration causing loss” value in [3] (mice) is recorded as 1-10%.

In the case of `C[C@]12N[C@H](Cc3ccccc31)c1ccccc12` [dizocilpine], the “ion channel modulation, TM3 versus TM4 receptors (FIG. 2)” value in data set [2] was “modulate both 3-transmembrane (TM3) and TM4 receptors”.

In the case of `CCCC(C)C1(CC)C(=O)NC(=S)NC1=O` (stereo not drawn) [Thiopental], the EC50 in data set [1] is 25 µM.

With `FC1CC(F)(F)C(F)(F)C1(F)F` (stereo not drawn) [HFCP, 1,1,2,2,3,3,4-heptafluorocyclopentane], the “inhibitory potassium channel modulation (in words)” value in data set [6] is recorded as “potentiates”. The “NMDA receptor modulation (in words)” value in data set [7] is given as “no effect”. In addition, in [10], the “histopathology of heart, lung, kidney and liver tissues” value is given as “no evidence of inflammation or toxicity”. The “glycine receptor modulation (in words)” value with glycine receptors is listed as “potentiates”. In addition, in [9], the “GABAA receptor modulation (in words)” value is reported as “potentiates”. In data set [3] (4 healthy ND4 mice, mean±SD, inhaled), the “concentration causing loss” value is listed as 1.0±0.2% of 1 atmosphere. The “excitement or coughing during anesthetic induction” value in data set [3] (mice) was “no excitement or coughing”. For the same compound, the “time to awake after discontinuing administration” value in data set [3] (mice, after 2 hours of anesthesia) is “about 1 minute”. Moreover, in “Stability in soda lime”, the “stability in soda lime” value is reported as “stable in soda lime”.

In the case of `COC(F)(F)C(Cl)Cl` [Methoxyflurane], in data set [4], the EC50 is 210 µM. Also, the “ion channel modulation, TM3 versus TM4 receptors (FIG. 2)” value in data set [2] was “modulate both 3-transmembrane (TM3) and TM4 receptors”.
